Test results from US5646313A, “Amino acid derivatives, processes for their preparation and their therapeutic application” (Societe Civile Bioprojet, priority 1993, dated 1997).
Read-outs that look alike come from different tables or passages of the source.

Molecular target: enkephalinase
Test: in vitro assay of the enkephalinase-inhibitory activity (J. Pharmac. Exp. Ther., 1987, 243, 666)
Assay type: biochemical
Method: An assay of the enkephalinase-inhibitory activity (J. Pharmac. Exp. Ther., 1987, 243, 666) of the compounds of formulae (Ia) and (Ib) was performed.

[1] = (E) isomer, read-out: (E) Isomer IC50

IC50 ((Z) isomer, read-out: (Z) Isomer IC50)	IC50 [1]	Structure (SMILES)
171 nM	–	O=C(O)CCNC(=O)/C(=C/c1ccccc1)CS [Ex 38, N-(Z)-[1-oxo-2-(mercaptomethyl)-3-phenylpropenyl]-β-alanine]
–	10 nM	CC(CNC(=O)/C(=C\c1ccccc1)CS)C(=O)O (racemic) [Ex 14]
–	7.5 nM	O=C(O)CCNC(=O)/C(=C\c1ccc(-c2ccccc2)cc1)CS [Ex 25, N-(E)-[1-oxo-2-(mercaptomethyl)-3-(4-phenylphenyl)propenyl]-β-alanine]
–	11.8 nM	CCOc1ccc(/C=C(/CS)C(=O)NCCC(=O)O)cc1 [Ex 28, N-(E)-[1-oxo-2-(mercaptomethyl)-3-(4-ethoxyphenyl)propenyl]-β-alanine]
–	6.4 nM	O=C(O)CCCNC(=O)/C(=C\c1ccccc1)CS [Ex 16, 4-N-(E)-[1-oxo-2-(mercaptomethyl)-3-phenylpropenyl]aminobutanoic acid]
–	2.8 nM	O=C(O)CCNC(=O)/C(=C\c1ccccc1)CS [Ex 4, N-(E)-[1-oxo-2-(mercaptomethyl)-3-phenylpropenyl]-β-alanine]
–	7 nM	CC(CC(=O)O)NC(=O)/C(=C\c1ccccc1)CS (racemic) [Ex 12, 3-(RS)-N-(E)-[1-oxo-2-(mercaptomethyl)-3-phenylpropenyl]aminobutanoic acid]
–	5.8 nM	O=C(O)CCNC(=O)/C(=C\c1ccc(Oc2ccccc2)cc1)CS [Ex 41, N-(E)-[1-oxo-2-(mercaptomethyl)-3-(4-phenoxyphenyl)propenyl]-β-alanine]
–	5.9 nM	O=C(O)CCNC(=O)/C(=C\c1cc(F)cc(F)c1)CS [Ex 33, N-(E)-[1-oxo-2-(mercaptomethyl)-3-(3,5-difluorophenyl)propenyl]-β-alanine]
–	12.1 nM	O=C(O)CCNC(=O)/C(=C\c1ccc(C(F)(F)F)cc1)CS [Ex 22, N-(E)-[1-oxo-2-(mercaptomethyl)-3-(4-trifluoromethylphenyl)propenyl]-β-alanine]
–	19 nM	CC(=O)SC/C(=C/c1ccc2c(c1)OCO2)C(=O)NCCC(=O)OCc1ccccc1 [Ex 43, benzyl N-(E)-[1-oxo-2-(acetylthiomethyl)-3-(3,4-methylenedioxyphenyl)propenyl]-β-alaninate]
–	2.7 nM	COc1ccc(/C=C(/CS)C(=O)NCCC(=O)O)cc1 [Ex 19, N-(E)-[1-oxo-2-(mercaptomethyl)-3-(4-methoxyphenyl)propenyl]-β-alanin]
